One compound from US20120035161A1, “Novel Compositions and Methods of Treating Diseases Using the Same” (CORRIDOR PHARMACEUTICALS, INC., priority 2006, published 2012) can be followed below.

Data set [1] has as its system Aspergillus fumigatus-based mouse asthma model. Description: Aspergillus fumigatus-based mouse asthma model, lung resistance. The data set is classed as in vivo. Conditions: 20 mg/ml, intraperitoneally. As to the method: Compounds of the invention were also tested for efficiacy in an asthma model.
A cohort of mice was administered intraperitoneal injections of Aspergillus fumigatus on days 0, 14, 26, 27, and 28. Lung resistance was tested on day 29 immediately following a tracheotomy/methacholine procedure. Animals receiving dexamethasone were administered dexamethasone on days 26, 27 and 28. Animals receiving a compound of the invention were administered the compound just hours before the lung resistance test. As a control, all test compounds, as well as dexamethasone, were also administered to mice in the absence of an A. fumigatus insult.

Data set [2] concerns Serotonin (5-Hydroxytryptamine) 5-HT1, Non-Selective. Description: Assay 271000 radioligand binding, 5-HT1 non-selective. Also noted: species or system Wistar Rat. As to the method: (§1) The methods employed in this study have been adapted from the scientific literature to maximize reliability and reproducibility. Reference standards were run as an integral part of each assay to ensure the validity of the results obtained. Assays were performed under conditions as described below. Where presented, IC50 values were determined by a non-linear, least squares regression analysis using the Data Analysis Toolbox (MDL Information Systems, San Leandro, Calif., USA). Where inhibition constants (Ki) are presented, the Ki values were calculated using the equation of Cheng and Prusoff (Cheng, Y., Prusoff, W. H., Biochem. Pharmacol. 22:3099-3108, 1973) using the observed IC50 of the tested compound, the concentration of radioligand employed in the assay, and historical values for the KD of the ligand. Where presented, the Hill coefficient (nu), defining the slope of the competitive binding curve, was calculated using the Data Analysis Toolbox.

Data set [3] has as its system Serotonin (5-Hydroxytryptamine) 5-HT2, Non-Selective. Briefly: Assay 271600 radioligand binding, 5-HT2 non-selective. Also noted: species or system Wistar Rat. As to the method:
as §1

The subject of data set [4] is TNF-α. Description: Model of LPS-mediated cytokine production, serum TNF-α. Conditions: pre-dose time course, 10 mg/kg, IV or IP. Format: in vivo, CD1:ICR mice. On the procedure:
Both ICI-685 and ICI-735 were formulated in water. For the time course study, both drugs were formulated at a concentration of 1 mg/ml and dosed 10 ml/kg to produce a dose of 10 mg/kg. For the dose-response study, drug was formulated at concentrations of 0.05, 0.2 and 0.5 mg/ml and dosed at a volume of 10 ml/kg to produce doses of 0.5, 2 and 5 mg/kg, respectively. Animals were dosed IV or IP.
CD1:ICR mice were obtained from Harlan (Indianapolis, Ind.) at 6 weeks of age. Animals were housed 5 per cage, kept on a 12 hr light dark cycle and fed food and water ad libitum. Animals were tested at 8-10 weeks of age.
Lipopolysaccharide (heat killed E. coli 0127:B5; Sigma Aldrich) was prepared in distilled water at a concentration of 0.025 mg/ml. LPS was dosed at a volume of 10 ml/kg (IP) to produce a final dose of 0.25 mg/kg (approximately 7.5 μg/mouse). Drugs were dosed prior to LPS administration as indicated elsewhere herein. Blood was collected by retro-orbital eye bleed 90 minutes after LPS administration, Serum was prepared from blood and TNF-α and IL-1β levels were measured by using the OPT-EIA mouse TNF-α and IL-1β ELISA kits (BD Biosciences) as per directions of the manufacturer.
The first study was designed to determine the optimal route of administration and the optimal pre-treatment time. Two pre-dose time course studies were conducted. The first (Study 1A) was conducted with 3 pre-dose time points (2, 6 and 18 hrs). The second was conducted at 0, 1 and 2 hr predose time points. For both studies, drug was dosed IP or IV.
Using data from the first study, a second study was conducted that was designed to measure dose-response activity of each compound. Compounds were tested at doses of […]., 2.0 and 5 mg/kg using the route and pre-treatment time that produced the best activity.
Compounds ICI-715, ICI-824, ICI-953 and ICI-954 were formulated in water. For the time course study, drugs were formulated at a concentration of 1 mg/ml and dosed 10 ml/kg to produce a dose of 10 mg/kg. For the dose-response study, drugs were formulated at concentrations of 0.05, 0.2 and 0.5 mg/ml and dosed at a volume of 10 ml/kg to produce doses of 0.5, 2 and 5 mg/kg, respectively. Animals were dosed IV or IP.
Lipopolysaccharide (heat killed E. coli 0127:B5; Sigma Aldrich) was prepared in distilled water at a concentration of 0.025 mg/ml, LPS was dosed at a volume of 10 ml/kg (IP) to produce a final dose of 0.25 mg/kg (approximately […]). Drugs were dosed prior to LPS administration as indicated above. Blood was collected by retro-orbital eye bleed 90 minutes after LPS administration. Serum was prepared from blood and TNF-α and IL-1β levels were measured by using the OPT-EIA mouse TNF-α and IL-1β ELISA kits (BD Biosciences) as per directions of the manufacturer.
The first study was designed to determine the optimal route of administration and the optimal pre-treatment time. One pre-dose time course was conducted (for all compounds) with compounds administered at 0, 1 and 2 hrs prior to LPS treatment. For both studies, drug was dosed IP or IV. The IP study and IV study were conducted on separate days.
Using data from the first study, a second study was conducted that was designed to measure dose-response activity of each compound. Compounds were tested at doses of 0.5, 2.0 and 5 mg/kg using the route and pre-treatment time that produced the best activity.

The subject of data set [5] is cryopreserved mixed gender human hepatocytes. Briefly: Hepatocyte stability assay. Conditions: 5 μM test compound. The data set is classed as in vitro ADME. On the procedure:
Test compounds (5 μM) were incubated with cryopreserved mixed gender human hepatocytes pooled from at least 3 donors. Cell viability of hepatocytes was assessed by a Trypan Blue assay prior to the initiation of the stability assay. The final hepatocyte cell density was 1.5×10^6 viable cells/mL, Samples were taken at 2 time points: 0 and 60 minutes. As positive controls, testosterone (20 μM) and 7-hydroxy-coumarin (100 μM) were incubated and sampled at 5 time points: 0, 15, 30, 60, and 120 minutes. Aliquots were removed and combined (50/50) with acetonitrile to terminate the reaction. Samples were mixed for 10 minutes and centrifuged. The supernatants were transferred to vial for analysis by HRMS. In this assay, both test compound and a des-glycine metabolite (M1) are quantified based on peak area response ratios.
The enzymatic activities of the human cryopreserved hepatocytes used in this study were verified in parallel by determining the disappearance of testosterone (expressed as half-life) and the formation of 7-hydroxycoumarin glucuronide and 7-hydroxycoumarin sulfate (expressed as a formation rate).

Where “and” joins values, the source holds several entries; their conditions need not be identical. Equal entries are not always repeated.

`NCC(=O)NCCN1CCN(CCCN2c3ccccc3Sc3ccc(C(F)(F)F)cc32)CC1` [ICI-735] registered a Lung resistance in data set [1] (A. fumigatus insult, day 29) of 8.5 cm H2O/ml/s. Besides, the “decreasing lung resistance compared with dexamethasone” value in data set [1] is recorded as “at least as effective as dexamethasone”. Moreover, the “% INHIBITION” value is reported as 16% in data set [2] (0.1 μM), 63% in data set [2] (10 μM), 62% in data set [3] (0.1 μM) and 91% in data set [3] (10 μM). Moreover, the “inhibition of LPS-stimulated TNFα secretion” value in data set [4] was “inhibited”. In addition, the “Relative Level (%)” value is 99.5% and 100.5% in data set [5] (T = 0 minutes); 89.6% and 92.4% in data set [5] (T = 60 minutes). Moreover, in data set [5] (T = 60 minutes), the “Peak Areas” value is 8.39E+06 and 8.79E+06.
